Earlier results in US9427419B2, “Compositions comprising dimethyl sulfoxide (DMSO)” (Abela Pharmaceuticals, Inc., priority 2005, dated 2016).

Legend:
cerebral blood flow = details: variety of brain injuries including stroke and head trauma, animals and humans
[1] = after oral administration
[2] = higher doses, from 15 to 30 grams daily
endothelin-1 = details: continuous intravenous infusion for 120 minutes at 0.125 g/min, angina pectoris
[3] = test system: asymmetric dimethylarginine (ADMA); details: continuous intravenous infusion for 120 minutes at 0.125 g/min, angina pectoris
[4] = test system: cerebral blood flow, contused brain; details: mice, after experimental traumatic injury
[5] = doses of 250 mg/Kg

Structure (SMILES): C[S+](C)[O-] [DMSO, dimethyl sulfoxide]
- excitotoxic death of the neurons induced by glutamate (hippocampal neurons): can prevent excitotoxic death
- glutamate responses in hippocampal neurons (hippocampal neurons; DMSO concentrations 0.5-[…]): inhibit glutamate responses
- electrophysiological responses and calcium influx induced by glutamate, NMDA and AMPA (hippocampal neurons; rapidly reversible manner): suppresses
- cerebral blood flow (CBF) (cerebral blood flow): increase CBF

Structure (SMILES): N=C(N)NCCC[C@H](N)C(=O)O [L-arginine]
- time of peak plasma levels [1]: 1 to 2 h
- most common adverse reactions [2]: nausea, abdominal cramps and diarrhea
- levels of endothelin-1 (endothelin-1): reduce the levels of endothelin-1
- serum levels of asymmetric dimethylarginine (ADMA) [3]: lowered the serum levels of asymmetric dimethylarginine (ADMA)
- cerebral blood flow (CBF) post-injury [4]: increased CBF post-injury
- contusion volume [4]: reduction in contusion volume

Structure (SMILES): N[C@@H](CC(=O)O)C(=O)O [L-aspartate]
- adverse effects [5]: without adverse effects

Structure (SMILES): NCCCC[C@H](N)C(=O)O [L-lysine]
- adverse effects [5]: without adverse effects
